Measured values published in patent US10730874B2 (Shire Human Genetic Therapies, Inc., priority 2018, dated 2020).

Molecular target: human activated kallikrein enzyme (plasma kallikrein) (Homo sapiens (Human), UniProt P03952)
Experiment: Inhibition of human activated plasma kallikrein, fluorogenic peptide substrate assay, 500 pM enzyme format
Type: biochemical
Settings: 500 pM activated kallikrein enzyme, 300 uM Pro-Phe-Arg-7-amido-4-methylcoumarin substrate, 30 min preincubation, 10 min at RT; read-out: Primary Dose Response Assay: Average EC50
Protocol: Example compounds were evaluated for inhibition of the human activated kallikrein enzyme in two formats of an assay employing a fluorogenic peptide substrate. In one assay format, the concentrations of reagents were as follows: 20 mM Tris pH 7.5, 1 mM EDTA, 150 mM sodium chloride, 0.1% PEG-400, 0.1% Triton X-100, 500 pM activated kallikrein enzyme, 300 uM Pro-Phe-Arg-7-amido-4-methylcoumarin substrate. Prior to reaction initiation with substrate, enzyme and inhibitors were preincubated for 30 min at RT. After initiation with substrate, reactions were incubated for 10 min at RT and fluorescence emission at 460 nm from 380 nm excitation measured with a microplate reader. In another assay format, the concentrations of reagents were as follows: 20 mM Tris pH 7.5, 1 mM EDTA, 150 mM sodium chloride, 0.1% PEG-400, 0.1% Triton X-100, 5 pM activated kallikrein enzyme, 300 uM Pro-Phe-Arg-7-amido-4-methylcoumarin substrate. Prior to reaction initiation with substrate, enzyme and inhibitors were preincubated for 30 min at RT. After initiation with substrate, reactions were incubated for 18 h at RT and fluorescence emission at 460 nm from 380 nm excitation measured with a microplate reader.

Chain of human activated kallikrein enzyme (plasma kallikrein) (P03952 391-638): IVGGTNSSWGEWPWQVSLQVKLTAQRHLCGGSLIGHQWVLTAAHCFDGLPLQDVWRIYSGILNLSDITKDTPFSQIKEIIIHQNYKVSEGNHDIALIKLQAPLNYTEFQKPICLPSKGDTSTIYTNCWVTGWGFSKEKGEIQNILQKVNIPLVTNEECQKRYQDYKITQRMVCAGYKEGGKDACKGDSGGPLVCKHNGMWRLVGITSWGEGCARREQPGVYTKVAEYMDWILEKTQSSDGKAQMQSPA
Chain of human activated kallikrein enzyme (plasma kallikrein) (P03952 20-390 partner): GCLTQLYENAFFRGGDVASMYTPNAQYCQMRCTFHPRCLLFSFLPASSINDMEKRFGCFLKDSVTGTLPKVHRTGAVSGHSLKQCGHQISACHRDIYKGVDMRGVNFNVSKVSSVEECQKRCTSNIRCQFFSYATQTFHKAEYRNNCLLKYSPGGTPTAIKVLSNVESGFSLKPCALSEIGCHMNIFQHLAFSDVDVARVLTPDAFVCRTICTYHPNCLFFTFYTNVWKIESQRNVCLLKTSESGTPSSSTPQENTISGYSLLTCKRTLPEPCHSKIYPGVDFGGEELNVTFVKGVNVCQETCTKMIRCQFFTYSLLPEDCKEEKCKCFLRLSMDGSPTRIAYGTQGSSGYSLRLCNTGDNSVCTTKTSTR

| SMILES | EC50 [nM] |
| --- | --- |
| CC1CC1c1ccc2nc(Cn3cc(C(=O)NCc4ncn5ccc(Br)cc45)cn3)cn2c1 (stereo not shown) [Example I-44, N-((7-bromoimidazo[1,5-a]pyridin-1-yl)methyl)-1-((6-(2-methylcyclopropyl)imidazo[1,2-a]pyridin-2-yl)methyl)-1H-pyrazole-4-carboxamide] | < 1 |
| O=C(NCc1ncn2ccc(I)cc12)c1cnn(Cc2cn3cc(C4CC4)ccc3n2)c1 [Example I-45, 1-((6-cyclopropylimidazo[1,2-a]pyridin-2-yl)methyl)-N-((7-iodoimidazo[1,5-a]pyridin-1-yl)methyl)-1H-pyrazole-4-carboxamide] | 1 to 10 |
| CCc1cccc2nc(Cn3cc(C(=O)NCc4ncn5ccc(Cl)cc45)cn3)cn12 [Example I-46, N-((7-chloroimidazo[1,5-a]pyridin-1-yl)methyl)-1-((5-ethylimidazo[1,2-a]pyridin-2-yl)methyl)-1H-pyrazole-4-carboxamide] | 10 to 100 |
| C/C=C\c1ccc2nc(Cn3cc(C(=O)NCc4ncn5ccc(Cl)cc45)cn3)cn2c1 [Example I-47, (Z)—N-((7-chloroimidazo[1,5-a]pyridin-1-yl)methyl)-1-((6-(prop-1-en-1-yl)imidazo[1,2-a]pyridin-2-yl)methyl)-1H-pyrazole-4-carboxamide] | 1 to 10 |
| O=C(NCc1ncn2ccc(C3CC3)cc12)c1cnn(Cc2cn3cc(C4CC4)ccc3n2)c1 [Example I-48, 1-((6-cyclopropylimidazo[1,2-a]pyridin-2-yl)methyl)-N-((7-cyclopropylimidazo[1,5-a]pyridin-1-yl)methyl)-1H-pyrazole-4-carboxamide] | 100 to 2000 |
| CC1(C)CC1c1ccn2cc(Cn3cc(C(=O)NCc4ncn5ccc(Br)cc45)cn3)nc2c1 (stereo not shown) [Example I-49, N-((7-bromoimidazo[1,5-a]pyridin-1-yl)methyl)-1-((7-(2,2-dimethylcyclopropyl)imidazo[1,2-a]pyridin-2-yl)methyl)-1H-pyrazole-4-carboxamide] | 10 to 100 |
| O=C(NCc1ncn2ccc(Cl)cc12)c1nnc(Cc2cn3cc(C4CC4)ccc3n2)o1 [Example I-51, N-((7-chloroimidazo[1,5-a]pyridin-1-yl)methyl)-5-((6-cyclopropylimidazo[1,2-a]pyridin-2-yl)methyl)-1,3,4-oxadiazole-2-carboxamide] | < 1 |
| O=C(NCc1ncn2ccc(Br)cc12)c1nnc(Cc2cn3cc(C4CC4)ccc3n2)o1 [Example I-52, N-((7-bromoimidazo[1,5-a]pyridin-1-yl)methyl)-5-((6-cyclopropylimidazo[1,2-a]pyridin-2-yl)methyl)-1,3,4-oxadiazole-2-carboxamide] | < 1 |
| Nc1ccc2c(CNC(=O)c3cnn(Cc4cn5cc(C6CC6)ccc5n4)c3)ncn2c1 [Example I-53, N-((6-aminoimidazo[1,5-a]pyridin-1-yl)methyl)-1-((6-cyclopropylimidazo[1,2-a]pyridin-2-yl)methyl)-1H-pyrazole-4-carboxamide] | 100 to 2000 |
| N#Cc1cccc2nc(Cn3cc(C(=O)NCc4ncn5ccc(Cl)cc45)cn3)cn12 [Example I-54, N-((7-chloroimidazo[1,5-a]pyridin-1-yl)methyl)-1-((5-cyanoimidazo[1,2-a]pyridin-2-yl)methyl)-1H-pyrazole-4-carboxamide] | 10 to 100 |
| N#Cc1cccc2nc(Cn3cc(C(=O)NCc4ncn5ccc(Br)cc45)cn3)cn12 [Example I-55, N-((7-bromoimidazo[1,5-a]pyridin-1-yl)methyl)-1-((5-cyanoimidazo[1,2-a]pyridin-2-yl)methyl)-1H-pyrazole-4-carboxamide] | 10 to 100 |
| O=C(NCc1ncn2ccc(Br)cc12)c1cnn(Cc2cc3cc(C4CC4)ccn3n2)c1 [Example I-56, N-((7-bromoimidazo[1,5-a]pyridin-1-yl)methyl)-1-((5-cyclopropylpyrazolo[1,5-a]pyridin-2-yl)methyl)-1H-pyrazole-4-carboxamide] | 1 to 10 |
| Cc1ccc2nc(Cn3cc(C(=O)NCc4ncn5c(N)cc(Cl)cc45)cn3)cn2c1 [Example I-58, N-((5-amino-7-chloroimidazo[1,5-a]pyridin-1-yl)methyl)-1-((6-methylimidazo[1,2-a]pyridin-2-yl)methyl)-1H-pyrazole-4-carboxamide] | 1 to 10 |
| O=C(NCc1ncn2ccc(Cl)cc12)c1cnn(Cc2cn3c(F)c(C4CC4)ccc3n2)c1 [Example I-59, N-((7-chloroimidazo[1,5-a]pyridin-1-yl)methyl)-1-((6-cyclopropyl-5-fluoroimidazo[1,2-a]pyridin-2-yl)methyl)-1H-pyrazole-4-carboxamide] | < 1 |
| O=C(NCc1ncn2ccc(Br)cc12)c1cnn(Cc2cn3c(F)c(C4CC4)ccc3n2)c1 [Example I-60, N-((7-bromoimidazo[1,5-a]pyridin-1-yl)methyl)-1-((6-cyclopropyl-5-fluoroimidazo[1,2-a]pyridin-2-yl)methyl)-1H-pyrazole-4-carboxamide] | < 1 |
| O=C(NCc1ncn2ccc(Cl)cc12)c1cnn(Cc2cn3cc(C4CCC4)ccc3n2)c1 [Example I-61, N-((7-chloroimidazo[1,5-a]pyridin-1-yl)methyl)-1-((6-cyclobutylimidazo[1,2-a]pyridin-2-yl)methyl)-1H-pyrazole-4-carboxamide] | 1 to 10 |
| O=C(NCc1ncn2ccc(Cl)cc12)c1cnn(Cc2cn3c(CO)cccc3n2)c1 [Example I-62, N-((7-chloroimidazo[1,5-a]pyridin-1-yl)methyl)-1-((5-(hydroxymethyl)imidazo[1,2-a]pyridin-2-yl)methyl)-1H-pyrazole-4-carboxamide] | 100 to 2000 |
| COc1cccc2nc(Cn3cc(C(=O)NCc4ncn5ccc(Cl)cc45)cn3)cn12 [Example I-63, N-((7-chloroimidazo[1,5-a]pyridin-1-yl)methyl)-1-((5-methoxyimidazo[1,2-a]pyridin-2-yl)methyl)-1H-pyrazole-4-carboxamide] | 10 to 100 |
| Cc1ccc2nc(Cn3cc(C(=O)NCc4ncn5ccc(Cl)cc45)cn3)cn2c1 [Example I-64, N-((7-chloroimidazo[1,5-a]pyridin-1-yl)methyl)-1-((6-methylimidazo[1,2-a]pyridin-2-yl)methyl)-1H-pyrazole-4-carboxamide] | 1 to 10 |
| COC(=O)CCc1nn(Cc2cn3cc(C4CC4)ccc3n2)cc1C(=O)NCc1ncn2ccc(Cl)cc12 [Example I-65, methyl 3-(4-(((7-chloroimidazo[1,5-a]pyridin-1-yl)methyl)carbamoyl)-1-((6-cyclopropylimidazo[1,2-a]pyridin-2-yl)methyl)-1H-pyrazol-3-yl)propanoate] | < 1 |
| C#Cc1ccn2cnc(CNC(=O)c3cnn(Cc4cn5cc(C6CC6)ccc5n4)c3)c2c1 [Example I-66, 1-((6-cyclopropylimidazo[1,2-a]pyridin-2-yl)methyl)-N-((7-ethynylimidazo[1,5-a]pyridin-1-yl)methyl)-1H-pyrazole-4-carboxamide] | < 1 |
| CCc1ccn2cnc(CNC(=O)c3cnn(Cc4cn5cc(C6CC6)ccc5n4)c3)c2c1 [Example I-67, 1-((6-cyclopropylimidazo[1,2-a]pyridin-2-yl)methyl)-N-((7-ethylimidazo[1,5-a]pyridin-1-yl)methyl)-1H-pyrazole-4-carboxamide] | 10 to 100 |
| O=C(NCc1ncn2ccc(Br)cc12)c1cnn(Cc2cn3nc(C4CC4)ccc3n2)c1 [Example I-68, N-((7-bromoimidazo[1,5-a]pyridin-1-yl)methyl)-1-((6-cyclopropylimidazo[1,2-b]pyridazin-2-yl)methyl)-1H-pyrazole-4-carboxamide] | < 1 |
| O=C(NCc1ncn2ccc(Cl)cc12)c1cnn(Cc2cn3ccccc3n2)c1 [Example I-69, N-((7-chloroimidazo[1,5-a]pyridin-1-yl)methyl)-1-(imidazo[1,2-a]pyridin-2-ylmethyl)-1H-pyrazole-4-carboxamide] | 100 to 2000 |
| O=C(NCc1ncn2ccc(Cl)cc12)c1nnc(Cc2cn3cc(C4CC4)ccc3n2)s1 [Example I-70, N-((7-chloroimidazo[1,5-a]pyridin-1-yl)methyl)-5-((6-cyclopropylimidazo[1,2-a]pyridin-2-yl)methyl)-1,3,4-thiadiazole-2-carboxamide] | 10 to 100 |
| CCOC(=O)c1cc(C2CC2)cn2cc(Cn3cc(C(=O)NCc4ncn5ccc(Cl)cc45)cn3)nc12 [Example I-71, ethyl 2-((4-(((7-chloroimidazo[1,5-a]pyridin-1-yl)methyl)carbamoyl)-1H-pyrazol-1-yl)methyl)-6-cyclopropylimidazo[1,2-a]pyridine-8-carboxylate] | < 1 |
| O=C(NCc1ncn2ccc(Cl)cc12)c1cnn(Cc2cn3cc(C4CC4)cc(C(=O)O)c3n2)c1 [Example I-72, 2-((4-(((7-chloroimidazo[1,5-a]pyridin-1-yl)methyl)carbamoyl)-1H-pyrazol-1-yl)methyl)-6-cyclopropylimidazo[1,2-a]pyridine-8-carboxylic acid] | 1 to 10 |
| O=C(O)CCc1nn(Cc2cn3cc(C4CC4)ccc3n2)cc1C(=O)NCc1ncn2ccc(Cl)cc12 [Example I-73, 3-(4-(((7-chloroimidazo[1,5-a]pyridin-1-yl)methyl)carbamoyl)-1-((6-cyclopropylimidazo[1,2-a]pyridin-2-yl)methyl)-1H-pyrazol-3-yl)propanoic acid] | < 1 |
